Data reported in patent publication US20020150961A1, “Activity-dependent cysteine protease profiling reagent” (The Regents of the University of California Office of …, priority 2000, published 2002).

Legend:
[1] = test system: multiple proteases in DC2.4 lysates; assay: Competition labeling in DC2.4 lysates with 125I-DCG-04; type: biochemical; conditions: for potency and selectivity, competition of 125I-DCG-04 labeling of multiple polypeptides: 50 μM library member, DC2.4 lysates, pH 5.5
Procedure: Lysates from the dendritic cell line DC2.4 were prepared at pH 5.5 as described above. Purified cathepsin H was purchased from Calbiochem (San Diego, Calif.). Samples of lysates (100 μg total protein in 100 μL buffer B; 50 mM Tris pH 5.5, 5 mM MgC12, 2 mM DTT) or purified cathepsin H (1 μg protein in 100 μL buffer A) were preincubated with 50 μM of each library member (diluted from 5 mM DMSO stocks) for 2 hrs at room temperature. […] Samples were quenched by the addition of 4×sample buffer to 1×followed by boiling for 5 minutes. Samples were analyzed by SDS-PAGE followed by autoradiography.

[2] = biological target: T1, cathepsin B (Mus musculus, UniProt P10605); assay: Competition labeling in DC2.4 lysates with cathepsin B-specific 125I-MB-074; type: biochemical; conditions: P2 library preincubation
T1 construct: This method allowed analysis of cathepsin B specificity in crude extracts; endogenous in cells; host or cells: DC2.4 dendritic cell line
Procedure: Lysates from the dendritic cell line DC2.4 were prepared at pH 5.5 as described above. Purified cathepsin H was purchased from Calbiochem (San Diego, Calif.). Samples of lysates (100 μg total protein in 100 μL buffer B; 50 mM Tris pH 5.5, 5 mM MgC12, 2 mM DTT) or purified cathepsin H (1 μg protein in 100 μL buffer A) were preincubated with 50 μM of each library member (diluted from 5 mM DMSO stocks) for 2 hrs at room temperature. Samples were then labeled by addition of either ^125I-DCG-04 or ^125I-MB-074 to each sample followed by further incubation at room temperature for 1 hour. Samples were quenched by the addition of 4×sample buffer to 1×followed by boiling for 5 minutes. Samples were analyzed by SDS-PAGE followed by autoradiography.

[3] = test system: cysteine proteases in DC2.4 dendritic cell extracts; assay: Direct labeling of DC2.4 total cell extracts with probes (affinity blot / autoradiography); type: binding
Procedure: Tissues were dounce-homogenized in buffer A (50 mM Tris pH 5.5, 1 mM DTT, 5 mM MgCl2, 250 mM sucrose) and extracts centrifuged at 1,100×g for 10 min at 4° C. The resulting supernatant was centrifuged at 22,000×g for 30 min at 4° C. and final supernatants used for all labeling experiments. Cells were lysed using glass beads (<104 microns) in buffer A and supernatants centrifuged for 15,000×g for 15 min at 4° C. The total protein concentration of the final supernatants (soluble) was determined by BCA protein quantification (Pierce).
Equivalent amounts of radioactive inhibitor stock solutions (approx. 10^6 cpm per sample) were used for all labeling experiments. Samples of lysates (100 μg total protein in 100 μL buffer; 50 mM Tris pH 5.5, 5 mM MgC12, 2 mM DTT) were labeled for 1 hour at 25° C. unless noted otherwise. Samples were quenched by dilution of 4×SDS sample buffer to 1×(for 1D SDS-PAGE) or by dissolving urea to a final concentration of 9.5 M (for 2D SDS-PAGE).
Quenched DCG-04 labeled samples were separated by SDS/PAGE […] and transferred to nitrocellulose using semi-dry apparatus. Membranes were blocked using phosphate buffered saline (PBS) and 5% (w/v) dry milk for 30 min at 25° C. Blots were washed briefly with PBS/0.2% Tween (PBS-Tween) and treated with avidin-horseradish peroxidase conjugate (VectaStain) in PBS-Tween for 30 min. at 25° C. […]

[4] = test system: cysteine proteases in rat kidney; assay: Affinity purification and identification of DCG-04 modified proteins from rat kidney; type: binding; conditions: monomeric-avidin purification, mass spectrometry
Procedure: A soluble fraction of rat kidney lysate (80 mg total protein) was diluted into anion exchange starting buffer (50 mM Tris, 50 mM NaCl, pH 9.0). The lysate was applied to a […] anion exchange column (Amersham Pharmacia Biotech) and eluted using a linear gradient of 0.05-1M NaCl, pH 9. An aliquot from each fraction (50 μL) was incubated with 50 μM DCG-04 at 25° C. for 1hr and analyzed on a 12.5% SDS/PAGE gel followed by affinity blotting as described above. The fractions containing peak labeling of the 25 kD-30 kD bands were pooled and DCG-04 was added to a final concentration of 50 μM. Pools were incubated at 25° C. for 2 hours and then 12 hours at 4° C. Unbound inhibitor was removed and buffer was exchanged with PBS using a PD-10 column (Pharmacia). Samples were applied to a monomeric-avidin column (1 ml bed volume; Pierce) and the column was washed with 6×1 ml fractions of 1M NaCl. Bound proteins were eluted with 0.5 ml fractions of 2 mM Biotin/100 mM NH4HCO3 buffer. All wash and eluent fractions were analyzed by SDS/PAGE and silver staining. The fractions containing the labeled 25-30 kD bands were pooled, the volume reduced by lyophilization and solid urea added to 9.5 M along with BME to 5%, NP-40 to 2%, pH 5-7 ampholytes to 1.6% and pH 3.5-10 ampholytes to 0.4%. […]

[5] = test system: papain family proteases in rat liver; assay: Affinity purification and identification of DCG-04 labeled proteases from rat liver; type: binding; conditions: single-step affinity purification, LC-MS-TOF CID
Procedure: Protein lysates prepared in buffer A (50 mM Acetate buffer, 5 mM DTT, 0.1% Triton X-100) were incubated with […] for 1.5 hours at room temperature. After incubation the protein lysate was passed through a PD10 column pre-equilibrated with buffer B (50 mM Tris-Base 7.4, 150 mM NaCl) and proteins were eluted with the same buffer. SDS was added to eluted proteins to a final concentration of 0.5% and the solution boiled for 10 minutes, diluted 2.5 fold with buffer B (to reduce SDS concentration to 0.2%) and incubated with […] of pre-washed Streptavidin beads for 1 hour at room temperature. Beads were washed 5 times with buffer B, and bound proteins were eluted by boiling for 10 minutes in the presence of […]. For 2D analysis, samples in SDS sample buffer were diluted 1:1 with IEF sample buffer ([…], 5% BME, 2% NP-40, 1.6% pH 5-7 ampholines and 0.4% pH 3.5-10 ampholines) and pure NP-40 was added (25% of volume of sample). Samples were applied to IEF tube gels and electrophoresed at 1000V for 13 hours followed by separation in the second dimension on 15% SDS-PAGE gels. […] The mass range recorded in survey acquisitions was m/z 300-1400. […] All the data were measured using a two point external calibration. […]

[6] = test system: papain family cysteine proteases in DC2.4 cells; assay: In situ fluorescence labeling of DC2.4 cells; type: cell-based; conditions: pre-treatment 10 mM for 1 hour
Procedure: Dendritic cells (DC2.4) were plated on a 24-well dish (10^5 cells/well) embedded with sterile microscope cover slips, in RPMI medium containing 10% FBS. After 16 hours, cells were washed with 1 ml TC-199 medium and incubated with […] of Bodipy-DCG-04 in TC-199 for 12 hours at 37° C. Cells were washed 3 times with 1 ml TC-199 and incubated for 5 hr in probe-free medium. Subsequently, cells were either lysed in buffer A and analyzed on a 12.5% SDS-PAGE using a fluorescent scanner or viewed under a fluorescent microscope.

[7] = test system: papaine family of cysteine proteases; conditions: literature; cited from earlier work
[8] = test system: invasive cells; conditions: treatment of invasive cells, literature; cited from earlier work

T1 sequence (P10605 80-333 limits assumed): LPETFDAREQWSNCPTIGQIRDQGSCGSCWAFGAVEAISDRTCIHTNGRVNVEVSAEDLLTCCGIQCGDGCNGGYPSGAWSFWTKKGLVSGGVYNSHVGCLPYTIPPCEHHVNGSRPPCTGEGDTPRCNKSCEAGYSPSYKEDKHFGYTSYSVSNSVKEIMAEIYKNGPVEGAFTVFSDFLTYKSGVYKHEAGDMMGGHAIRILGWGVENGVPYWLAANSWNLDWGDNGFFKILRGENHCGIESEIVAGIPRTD

activity, competition of 125I-MB-074 labeling of cathepsin B [2]	Molecule	potency and selectivity, competition of 125I-DCG-04 labeling of multiple polypeptides [1]	further results
highest activity	DCG-04	highest activity and the lowest amount of specificity	labeling of major 20-40 kDa species after preheating of samples ([3]; preheated to 100° C. for 1 min before adding compound): lost upon heat denaturation; active cysteine proteases identified via probe [4]: cathepsin B, H, and L; proteases identified via probe [5]: cathepsins Z, H, C and J
	NCC(=O)O [glycine]	relatively poor activity overall, they showed some degree of specificity against polypeptide 2	
highest activity	CC[C@H](C)[C@H](N)C(=O)O [isoleucine]	highest activity and the lowest amount of specificity	
	CC(C)C[C@H](NC(=O)[C@H]1O[C@@H]1C(=O)O)C(=O)NCCCCN=C(N)N [E-64]		competition of 125I-DCG-04 labeling ([1]; increasing concentrations, preincubation, DC2.4 extracts): effectively competed; inhibition of in situ protease labeling by green-DCG-04 [6]: completely inhibited; reactivity toward cysteine proteases [7]: broadly reactive; effect on cellular invasion [8]: block in cellular invasion into a synthetic matrix
highest activity	CCCC[C@H](N)C(=O)O [norleucine]	highest activity and the lowest amount of specificity	
	N[C@@H](CC(=O)O)C(=O)O [aspartic acid]	relatively poor activity overall, they showed some degree of specificity against polypeptide 2	
highest activity	CC(C)[C@H](N)C(=O)O [valine containing compound]	competed for polypeptides 1, 2 and cathepsin B but had little effect on the remaining species	
	CC(C)CC(NC(=O)C1OC1C(=O)O)C(=O)NCCc1ccc(O)cc1 (stereo not shown) [JPM-565, reference compound]		labeling as detected by affinity blotting ([3]; non-radiolabeled compound, DC2.4 extracts): no labeling

Molecule	activity, competition of 125I-MB-074 labeling of cathepsin B [2]	potency and selectivity, competition of 125I-DCG-04 labeling of multiple polypeptides [1]	further results
N[C@@H](Cc1ccccc1)C(=O)O [phenylalanine]	highest activity followed by the aromatic amino acids	specificity for polypeptides 2, 3, 4, and 5	
N[C@@H](Cc1ccc(O)cc1)C(=O)O [tyrosine]	highest activity followed by the aromatic amino acids	specificity for polypeptides 2, 3, 4, and 5	
